Experiments:
[1] = tested on: Drosophila melanogaster Smo (dSmo) and dSmo CRD; assay: 20(S)-OHC bead binding of Drosophila Smo; conditions: bead-immobilized 20(S)-OHC
Zebrafish embryos = assay: Zebrafish embryo treatment: eng2a:GFP reporter and ptch2 in situ hybridization; assay type: in vivo; conditions: 30hpf embryos, 20(S)-OHC 50 µM
Procedure: Adult fishes were maintained on a 14-hr light/10-hr dark cycle at 28°C in the AVA (Singapore) certified IMCB Zebrafish Facility. Zebrafish strain used was Tg(eng2a:eGFP)^i233 ([Maurya et al., 2011]).
The embryos of Tg(eng2a:eGFP)^i233 were dechorinated using pronase (Roche) at one cell stage. […] Control embryos were kept in water containing the same amount of ethanol, used as the vehicle for the drugs. Standard in situ hybridization (ISH) was performed with anti-Dig alkaline phosphatase and chromogenic substrate NBT/BCIP as previously described ([Oxtoby and Jowett, 1993]). ptch2 (formerly ptc1) RNA probe was prepared from template as previously described ([Concordet et al., 1996]).

ΔCRD-YFP-mSmo = target: T1, ΔCRD-YFP-mSmo (Mus musculus, UniProt P56726, DEL68-184); assay: Hh signaling by ΔCRD-YFP-mSmo in Smo−/− cells (immunoblot, Hh reporter); assay type: cell-based; conditions: SAG 100 nM, 20(S)-OHC 10 μM
T1 construct: All mSmo mutants were made using Quickchange or PCR methods in the context of a previously described construct encoding full-length mouse Smo (UniProt P56726); expressed in transfected cells
T1 sequence (P56726 with tags, fused parts or gaps DEL68-184): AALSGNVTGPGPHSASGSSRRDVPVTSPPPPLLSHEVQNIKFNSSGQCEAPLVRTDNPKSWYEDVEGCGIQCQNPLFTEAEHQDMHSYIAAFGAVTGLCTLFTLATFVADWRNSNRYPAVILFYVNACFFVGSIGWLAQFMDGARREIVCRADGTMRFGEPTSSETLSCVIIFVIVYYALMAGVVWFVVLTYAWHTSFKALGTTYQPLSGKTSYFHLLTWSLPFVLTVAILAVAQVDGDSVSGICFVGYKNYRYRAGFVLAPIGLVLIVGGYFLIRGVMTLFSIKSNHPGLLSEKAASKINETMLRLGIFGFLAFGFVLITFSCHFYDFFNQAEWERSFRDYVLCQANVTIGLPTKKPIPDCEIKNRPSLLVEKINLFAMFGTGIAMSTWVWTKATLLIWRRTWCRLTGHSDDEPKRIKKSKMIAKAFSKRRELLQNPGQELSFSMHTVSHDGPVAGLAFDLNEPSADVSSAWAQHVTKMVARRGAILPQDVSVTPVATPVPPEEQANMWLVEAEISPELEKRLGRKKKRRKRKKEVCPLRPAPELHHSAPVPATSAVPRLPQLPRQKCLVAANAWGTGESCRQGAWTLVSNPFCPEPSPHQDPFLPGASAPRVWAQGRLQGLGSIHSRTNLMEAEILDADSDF

YFP-mSmo [2] = target: T2, YFP-mSmo (Mus musculus, UniProt P56726); assay: 20(S)-OHC bead pull-down of YFP-mSmo from cell lysates; assay type: binding; conditions: 50 μM free 20(S)-OHC as competitor
T2 construct: Smo^−/− cells stably expressing full-length (FL) YFP-mSmo or ΔCRD-YFP-mSmo were treated with Shh, SAG (100 nM) or 20(S)-OHC (10 μM); expressed in transfected cells
T2 sequence (P56726 33-793): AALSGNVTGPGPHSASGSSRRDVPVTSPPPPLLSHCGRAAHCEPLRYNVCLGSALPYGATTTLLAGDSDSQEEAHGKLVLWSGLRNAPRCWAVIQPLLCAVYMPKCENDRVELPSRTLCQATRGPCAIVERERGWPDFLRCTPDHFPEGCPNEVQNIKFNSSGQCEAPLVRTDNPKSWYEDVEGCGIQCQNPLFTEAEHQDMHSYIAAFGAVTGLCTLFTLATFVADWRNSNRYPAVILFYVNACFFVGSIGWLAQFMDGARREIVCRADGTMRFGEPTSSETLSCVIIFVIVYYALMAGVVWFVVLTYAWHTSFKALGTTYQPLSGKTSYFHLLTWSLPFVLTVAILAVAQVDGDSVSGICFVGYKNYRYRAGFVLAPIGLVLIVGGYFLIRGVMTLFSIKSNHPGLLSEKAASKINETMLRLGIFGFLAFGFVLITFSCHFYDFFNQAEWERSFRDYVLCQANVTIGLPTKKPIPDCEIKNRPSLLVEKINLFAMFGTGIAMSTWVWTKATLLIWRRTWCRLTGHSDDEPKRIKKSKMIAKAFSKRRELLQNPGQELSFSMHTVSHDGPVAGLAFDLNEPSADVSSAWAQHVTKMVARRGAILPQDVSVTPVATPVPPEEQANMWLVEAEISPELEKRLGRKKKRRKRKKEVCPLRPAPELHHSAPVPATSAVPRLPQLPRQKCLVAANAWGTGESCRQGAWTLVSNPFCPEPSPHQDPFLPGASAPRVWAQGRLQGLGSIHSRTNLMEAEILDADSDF
Procedure: 293T cells transfected with constructs encoding mSmo variants were lysed in hypotonic SEAT buffer (250 mM sucrose, 1 mM EDTA, 10 mM acetic acid, 10 mM triethanolamine and the SigmaFast EDTA-Free protease inhibitor cocktail). After the removal of nuclei by centrifugation (900×g, 5 min, 4°C), membranes were pelleted by ultracentrifugation (95,000×g, 30 min) and solubilized in a n-dodecyl-β-D-maltopyranoside (DDM) extraction buffer (50 mM Tris pH 7.4, 150 mM NaCl, 10% vol/vol glycerol, 0.5% wt/vol DDM and the SigmaFast EDTA-Free protease inhibitor cocktail) for 2 hr at 4°C, followed by removal of insoluble material by ultracentrifugation (100,000×g, 30 min). This DDM membrane extract was incubated with 20(S)-OHC beads for 12 hr at 4°C to allow binding to equilibrium. After extensive washing, proteins captured on the beads were eluted with reducing SDS sample buffer. The presence of YFP-mSmo in these eluates was determined by quantitative immunoblotting with an anti-YFP antibody (NB600-308, 1:5000; Novus) and infrared imaging (Li-Cor Odyssey).

zSmo ectodomain = target: T3, zSmo ectodomain (Danio rerio, UniProt Q5RH73); assay: Ligand affinity chromatography: zSmo ectodomain binding to 20(S)-OHC beads; parameters: species or system zebrafish
T3 construct: zSmo-ectodomain: a.a; 29–212), fused C-terminally with a with a hexa-histidine (His6) tag; His6 (C); made in house
T3 sequence (Q5RH73 29-212): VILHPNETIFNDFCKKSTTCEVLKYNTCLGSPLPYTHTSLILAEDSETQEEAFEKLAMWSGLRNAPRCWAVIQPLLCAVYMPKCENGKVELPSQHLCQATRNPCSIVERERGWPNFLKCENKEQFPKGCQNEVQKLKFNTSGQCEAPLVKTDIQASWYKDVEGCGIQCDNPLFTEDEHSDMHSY
Procedure: For ligand affinity chromatography with purified mSmo CRD-Fc or zSmo ectodomain, protein was diluted in 20 mM Tris pH 8.5, 150 mM NaCl, 0.3% octyl-glucoside prior to addition of competitors and 20(S)-OHC beads. After binding was allowed to proceed for 12 hr at 4°C, the resin was washed and captured protein was eluted as described above. The presence of mSmo CRD-Fc was measured by an anti-human HRP-coupled antibody (1:20,000) or anti-human IR800-coupled antibody (1:10,000; for all quantitation, detected by LiCor Odyssey). The presence of zSmo ectodomain protein was measured by colloidal Coomassie staining (GelCode Blue, Pierce/Thermo Scientific).
For Hh reporter assays, each point is reported as the mean ± standard deviation (SD) derived from triplicates. Each result in the paper was repeated at least three times with similar outcomes. Relative luciferase activity was calculated by dividing Gli luciferase by Renilla luciferase luminescence. Fold-change in reporter activity was calculated by dividing each replicate by the mean reporter activity of the vehicle-treated control. Normalized (% of max) Hh reporter activity was calculated by setting the maximum value of a set to 100% and zero to 0% using the ‘normalize’ function of GraphPad Prism. […]

YFP-mSmo [3] = target: T2, YFP-mSmo; assay: Gli1 and Gli3R immunoblot in Smo−/−:YFP-mSmo cells; assay type: cell-based; conditions: SAG 100 nM, 20(S)-OHC 10 μM
Procedure: Cultured cells stably expressing YFP-mSmo, ΔCRD-YFP-mSmo, or ΔC-YFP-mSmo were scraped into ice-cold PBS containing SigmaFast Protease inhibitor cocktail (Sigma) and collected as a pellet by centrifugation (1000×g, 10 min, 4°C). Cells were lysed (1 hr, 4°C) by agitation in modified RIPA buffer (50 mM sodium-Tris pH 7.4, 150 mM sodium chloride, 2% NP-40, 0.5% deoxycholate, 0.1% sodium-dodecyl sulfate [SDS], 1 mM dithiothreitol and the SigmaFast Protease inhibitor cocktail). After clarification (20,000×g, 45 min, 4°C), the protein concentration of each lysate was measured using the bicinchoninic acid assay (BCA, Pierce/Thermo Scientific, Rockford, IL). Lysate aliquots containing equal amount of total protein were fractionated on an 8% SDS-PAGE gel and transferred to a nitrocellulose membrane for immunoblotting with anti-Gli1 antibody (#L42B10, 1:500; Cell Signaling, Denvers, MA), anti-GFP antibody (1:5000; Novus, Littleton, CO), anti-Gli3 antibody (AF3690 1:200; R&D, Minneapolis, MN) and anti-p38 antibody (ab31828, 1:2000; Abcam, Cambridge, MA). In Figures 1–4, vertical dashed black lines represent non-contiguous lanes from the same immunoblot juxtaposed for clarity.

mSmo CRD-Fc = target: T4, mSmo CRD-Fc (Mus musculus, UniProt P56726); assay: Ligand affinity chromatography: mSmo CRD-Fc binding to 20(S)-OHC beads
T4 construct: made in house; host or cells: 293F suspension cells (secreted)
T4 sequence (P56726 33-183): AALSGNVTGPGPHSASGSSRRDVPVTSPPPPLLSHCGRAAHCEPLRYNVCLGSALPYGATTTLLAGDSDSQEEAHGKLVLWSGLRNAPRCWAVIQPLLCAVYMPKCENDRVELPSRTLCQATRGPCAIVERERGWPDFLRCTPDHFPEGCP
Procedure: After binding was allowed to proceed for 12 hr at 4°C, the resin was washed and captured protein was eluted as described above. The presence of mSmo CRD-Fc was measured by an anti-human HRP-coupled antibody (1:20,000) or anti-human IR800-coupled antibody (1:10,000; for all quantitation, detected by LiCor Odyssey). The presence of zSmo ectodomain protein was measured by colloidal Coomassie staining (GelCode Blue, Pierce/Thermo Scientific). […]

[4] = free compound added as competitor

SMILES: CC(C)CCC[C@](C)(O)[C@H]1CC[C@H]2[C@@H]3CC=C4C[C@@H](O)CC[C@]4(C)[C@H]3CC[C@@]21C [20(S)-OHC, 20(S)-hydroxycholesterol]
- binding of dSmo and dSmo CRD to 20(S)-OHC beads [1]: failed to bind 20(S)-OHC beads
- ptch2 expression by in situ hybridization (Zebrafish embryos): modest expansion of the expression domain
- eng2a:GFP reporter expression (Zebrafish embryos; cyclopamine 40 µM): significant increase in the number of GFP positive fast twitch muscles
- response of ΔCRD-YFP-mSmo to agonist (Hh target genes, Gli3R) (ΔCRD-YFP-mSmo): failed to activate Hh target genes or to extinguish Gli3R levels
- competition of YFP-mSmo binding to 20(S)-OHC beads (YFP-mSmo [2]): Binding to beads was not seen
- Kd (zSmo ectodomain; fixed amount of protein, increasing amounts of bead-immobilized sterol, read-out: Kd, zSmo ectodomain-20(S)-OHC interaction): ~0.17 µM
- inhibition of binding of zSmo ectodomain to 20(S)-OHC beads (zSmo ectodomain; [4]): inhibited in a dose-responsive fashion
- Gli3R level (YFP-mSmo [3]): loss of the repressor form of Gli3 (Gli3R) was observed
- activation of Hh target gene Gli1 (YFP-mSmo [3]): could activate a Hh target gene, Gli1
- Kd (mSmo CRD-Fc; fixed amount of protein, increasing amounts of bead-immobilized sterol, read-out: Kd, mSmo CRD-Fc-20(S)-OHC interaction): ~0.18 µM
- inhibition of binding of mSmo CRD-Fc to 20(S)-OHC beads (mSmo CRD-Fc; [4]): Binding could be inhibited

Reference: paper PMC3809587, “Structure and function of the Smoothened extracellular domain in vertebrate Hedgehog signaling” (eLife, 2013)
